Structures are written as SMILES. Marks after values point to notes of the source that are not given here.

For the first data set, the target named is hERG (human ether-a-go-go-related gene) potassium channel (Homo sapiens, UniProt Q12809). The data set can be described thus: QPatch automated patch-clamp hERG activator 4-concentration EC50 assay. As to conditions: increase of hERG tail current amplitude at 7 second (TL7); 3.3 uM (footnote *); hERG stably expressed in CHO cells.
Sequence of hERG (human ether-a-go-go-related gene) potassium channel (Q12809 whole entry): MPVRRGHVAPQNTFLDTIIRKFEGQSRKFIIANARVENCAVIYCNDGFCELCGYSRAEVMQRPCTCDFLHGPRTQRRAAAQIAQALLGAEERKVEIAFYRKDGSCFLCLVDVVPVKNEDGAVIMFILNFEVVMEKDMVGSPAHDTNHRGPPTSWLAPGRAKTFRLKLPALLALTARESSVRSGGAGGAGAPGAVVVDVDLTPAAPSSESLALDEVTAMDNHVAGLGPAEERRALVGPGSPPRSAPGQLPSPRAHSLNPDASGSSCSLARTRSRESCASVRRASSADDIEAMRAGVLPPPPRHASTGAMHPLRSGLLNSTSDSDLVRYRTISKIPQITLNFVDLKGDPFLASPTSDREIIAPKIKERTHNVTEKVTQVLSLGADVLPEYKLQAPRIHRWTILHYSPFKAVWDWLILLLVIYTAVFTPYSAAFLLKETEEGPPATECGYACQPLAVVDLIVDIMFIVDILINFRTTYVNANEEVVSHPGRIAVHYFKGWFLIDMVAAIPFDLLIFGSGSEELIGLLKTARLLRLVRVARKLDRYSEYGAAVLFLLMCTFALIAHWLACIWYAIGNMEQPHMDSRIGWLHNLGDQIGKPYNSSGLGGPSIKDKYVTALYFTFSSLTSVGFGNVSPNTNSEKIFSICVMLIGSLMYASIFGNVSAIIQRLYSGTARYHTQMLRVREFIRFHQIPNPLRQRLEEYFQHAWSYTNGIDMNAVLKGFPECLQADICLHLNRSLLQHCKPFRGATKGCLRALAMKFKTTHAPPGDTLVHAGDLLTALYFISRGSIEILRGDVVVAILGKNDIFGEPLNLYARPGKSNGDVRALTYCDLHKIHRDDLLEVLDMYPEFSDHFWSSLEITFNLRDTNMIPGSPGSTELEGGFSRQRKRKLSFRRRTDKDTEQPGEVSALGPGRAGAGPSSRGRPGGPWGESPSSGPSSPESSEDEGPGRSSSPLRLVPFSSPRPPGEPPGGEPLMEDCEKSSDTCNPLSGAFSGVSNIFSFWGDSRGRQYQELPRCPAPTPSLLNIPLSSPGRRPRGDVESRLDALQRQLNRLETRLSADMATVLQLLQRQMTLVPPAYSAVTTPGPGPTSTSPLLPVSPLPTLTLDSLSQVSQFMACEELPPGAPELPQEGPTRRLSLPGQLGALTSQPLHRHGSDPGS
On to `Fc1cc2cc(-c3nnn[nH]3)oc2cc1CNc1ccc(C(F)(F)F)c(Br)c1` [Example 177], for which the “% change@TL7 (*@3.3 uM)” value was 215* %.

The data set is the same for the next values; noted with them: increase of hERG tail current amplitude at 7 second (TL7); 10 uM; hERG stably expressed in CHO cells.
On to `N#CCOc1ccc(NCc2cc3oc(-c4nnn[nH]4)cc3cc2Br)cc1C(F)(F)F` [Example 155], for which the “% change@TL7@10 uM” value came to 370%.
On the same count and under the same terms, the same measure for `FC(F)Oc1ccc(NCc2cc3oc(-c4nnn[nH]4)cc3cc2Br)cc1C(F)(F)F` [Example 156]: 356%; for `FC(F)COc1ccc(NCc2cc3oc(-c4nnn[nH]4)cc3cc2Cl)cc1C(F)(F)F` [Example 157]: 350%.
Turning to `Fc1cc2cc(-c3nnn[nH]3)oc2cc1CNc1ccc(C(F)(F)F)c(C(F)(F)F)c1` [Example 158], the “% change@TL7@10 uM” value came to 277%.
For the molecule `Fc1cc2cc(-c3nnn[nH]3)oc2cc1CNc1cc(C(F)(F)F)c(Br)c(C(F)(F)F)c1` [Example 159], the “% change@TL7@10 uM” value was 388%.
Take `CC(C)c1ccc(NCc2cc3oc(-c4nnn[nH]4)cc3cc2F)cc1Br` [Example 160]: the “% change@TL7@10 uM” value is 347%.
On to `CCOc1ccc(NCc2cc3oc(-c4nnn[nH]4)cc3cc2F)cc1C(F)(F)F` [Example 161], for which the “% change@TL7@10 uM” value was 288%.
Turning to `Fc1cc2cc(-c3nnn[nH]3)oc2cc1CNc1ccc(OCC(F)F)c(C(F)(F)F)c1` [Example 162], the “% change@TL7@10 uM” value came to 372%.
On to `CC(C)Oc1ccc(NCc2cc3oc(-c4nnn[nH]4)cc3cc2F)cc1C(F)(F)F` [Example 163], for which the “% change@TL7@10 uM” value came to 250%.
As for `FC(F)(F)COc1ccc(NCc2cc3oc(-c4nnn[nH]4)cc3cc2Br)cc1C(F)(F)F` [Example 164], the “% change@TL7@10 uM” value came to 308%.
In the case of `Fc1cc2cc(-c3nnn[nH]3)oc2cc1CNc1ccc(OCC(F)(F)F)c(C(F)(F)F)c1` [Example 168], the “% change@TL7@10 uM” value amounted to 240%.
Consider `Cc1cc2cc(-c3nnn[nH]3)oc2cc1CNc1ccc(OCC(F)(F)F)c(C(F)(F)F)c1` [Example 170], for which the “% change@TL7@10 uM” value came to 299%.
Same read-out and setting: then `CC(C)Oc1ccc(NCc2ccc3cc(-c4nnn[nH]4)oc3c2Cl)cc1C(F)(F)F` [Example 171], with 291%; and `CCOc1ccc(NCc2ccc3cc(-c4nn[nH]n4)oc3c2)cc1Br` [Example 172], with 284%.
For `CC(C)Oc1ccc(NCc2cc3oc(-c4nnn[nH]4)cc3cc2Br)cc1C(F)(F)F` [Example 173], the “% change@TL7@10 uM” value is reported as 278%.
For `COc1ccc(NCc2ccc3cc(-c4nn[nH]n4)oc3c2)cc1Br` [Example 174], the “% change@TL7@10 uM” value stood at 273%.
As to `Fc1cc2cc(-c3nnn[nH]3)oc2cc1CNc1ccc(F)c(C(F)(F)F)c1` [Example 176], the “% change@TL7@10 uM” value is 120%.
Regarding `CCOc1ccc(NCc2cc3oc(-c4nnn[nH]4)cc3cc2Br)cc1C(F)(F)F` [Example 178], the “% change@TL7@10 uM” value is reported as 262%.
As for `Fc1cc2cc(-c3nnn[nH]3)oc2cc1CNc1ccc(Cl)c(Br)c1` [Example 180], the “% change@TL7@10 uM” value is recorded as 231%.
On the same count and under the same terms, then `CCc1ccc(NCc2cc3oc(-c4nnn[nH]4)cc3cc2F)cc1Br` [Example 181], with 322%.
As to `Clc1ccc(NCc2ccc3cc(-c4nn[nH]n4)oc3c2)cc1Br` [Example 182], the “% change@TL7@10 uM” value is 249%.
As to `FC(F)(F)COc1ccc(NCc2ccc3cc(-c4nnn[nH]4)oc3c2Cl)cc1C(F)(F)F` [Example 187], the “% change@TL7@10 uM” value is 230%.
As to `Cc1cc2cc(NCc3cc4oc(-c5nnn[nH]5)cc4cc3Cl)cc(Cl)c2o1` [Example 188], the “% change@TL7@10 uM” value is listed as 108%.
The same measure, in the same setting: the same measure for `FC(F)(F)c1cc(NCc2cc3oc(-c4nnn[nH]4)cc3cc2Cl)cc(C(F)(F)F)c1Br` [Example 189]: 350%; for `CCCc1ccc(NCc2cc3oc(-c4nnn[nH]4)cc3cc2F)cc1F` [Example 190]: 167%; for `Cc1cc2cc(NCc3ccc4cc(-c5nn[nH]n5)oc4c3)cc(Cl)c2o1` [Example 194]: 205%.
For the molecule `Cc1cc(NCc2cc3oc(-c4nnn[nH]4)cc3cc2F)cc(C(F)(F)F)c1` [Example 195], the “% change@TL7@10 uM” value was found to be 249%.
In the case of `Fc1cc2cc(-c3nnn[nH]3)oc2cc1CNc1ccc(C(F)(F)F)c(Cl)c1` [Example 196], the “% change@TL7@10 uM” value was determined as 169%.
Turning to `FC(F)(F)c1ccc(NCc2cc3oc(-c4nnn[nH]4)cc3cc2Cl)cc1Cl` [Example 198], the “% change@TL7@10 uM” value is recorded as 187%.
As to `Fc1c(Cl)cc(NCc2cc3oc(-c4nnn[nH]4)cc3cc2Cl)cc1C(F)(F)F` [Example 201], the “% change@TL7@10 uM” value was found to be 225%.
Consider `N#Cc1cc(NCc2ccc3cc(-c4nnn[nH]4)oc3c2Cl)ccc1OC(F)F` [Example 202], for which the “% change@TL7@10 uM” value turned out to be 174%.
The same measure, in the same setting: then `Fc1cc2cc(-c3nnn[nH]3)oc2cc1CNc1ccc(C(F)(F)F)c(F)c1` [Example 203], with 136%; and `Fc1cc2cc(-c3nnn[nH]3)oc2cc1CNc1ccc(OCC(F)(F)F)c(Cl)c1` [Example 205], with 222%.
As for `CCOc1ccc(NCc2ccc3cc(-c4nnn[nH]4)oc3c2Cl)cc1C(F)(F)F` [Example 206], the “% change@TL7@10 uM” value worked out at 160%.
The same measure, in the same setting: the same measure for `CC(C)c1ccc(NCc2cc3oc(-c4nnn[nH]4)cc3cc2Cl)cc1C(F)(F)F` [Example 207]: 297%.
For the molecule `Fc1cc2cc(-c3nnn[nH]3)oc2cc1CNc1ccc(Cl)c(Cl)c1` [Example 208], the “% change@TL7@10 uM” value worked out at 285%.
As to `Cc1nsc2ccc(NCc3ccc4cc(-c5nn[nH]n5)oc4c3)cc12` [Example 209], the “% change@TL7@10 uM” value is 137%.
`N#CCOc1ccc(NCc2ccc3cc(-c4nnn[nH]4)oc3c2Cl)cc1C(F)(F)F` [Example 210]: the “% change@TL7@10 uM” value came out at 134%.
As for `CCOc1ccc(NCc2cc3oc(-c4nnn[nH]4)cc3cc2F)cc1Cl` [Example 211], the “% change@TL7@10 uM” value amounted to 248%.
For the molecule `FC(F)(F)Oc1cc(Cl)cc(NCc2cc3oc(-c4nnn[nH]4)cc3cc2Cl)c1` [Example 212], the “% change@TL7@10 uM” value is listed as 116%.
In the case of `Cc1cc(NCc2cc3oc(-c4nnn[nH]4)cc3cc2Cl)cc(C(F)(F)F)c1` [Example 213], the “% change@TL7@10 uM” value is on record as 144%.
With `Fc1cc(NCc2cc3oc(-c4nnn[nH]4)cc3cc2F)ccc1Cl` [Example 214], the “% change@TL7@10 uM” value came to 138%.
With `Fc1ccc(NCc2cc3oc(-c4nnn[nH]4)cc3cc2F)cc1Cl` [Example 215], the “% change@TL7@10 uM” value worked out at 132%.
In the case of `CC(C)COc1ccc(NCc2ccc3cc(-c4nn[nH]n4)oc3c2)cc1Br` [Example 216], the “% change@TL7@10 uM” value stood at 88%.
For the molecule `CCOc1ccc(NCc2cc3oc(-c4nnn[nH]4)cc3cc2Cl)cc1Cl` [Example 217], the “% change@TL7@10 uM” value was determined as 116%.
Take `FC1(F)Oc2ccc(NCc3ccc4cc(-c5nn[nH]n5)oc4c3)cc2C(F)(F)O1` [Example 219]: the “% change@TL7@10 uM” value was found to be 71%.
As for `CCCc1c(C)cc(NCc2cc3oc(-c4nnn[nH]4)cc3cc2Cl)cc1Cl` [Example 220], the “% change@TL7@10 uM” value is recorded as 148%.
Regarding `Fc1ccc(NCc2cc3oc(-c4nnn[nH]4)cc3cc2Cl)cc1CC(F)(F)F` [Example 221], the “% change@TL7@10 uM” value stood at 81%.
Consider `O=C(O)c1cc2cc(Cl)c(CNc3ccc(OC(F)F)c(C(F)(F)F)c3)cc2o1` [Example 223], for which the “% change@TL7@10 uM” value worked out at 176%.
For the molecule `O=C(O)c1cc2cc(Cl)c(CNc3ccc(OCC(F)(F)F)c(C(F)(F)F)c3)cc2o1` [Example 224], the “% change@TL7@10 uM” value is listed as 222%.

Source of the values: patent publication US9255093B2, “Polycyclic HERG activators” (NOVARTIS AG, priority 2014, dated 2016).
